In experiment [1] the target is T1, CD99-ECD (extracellular domain of human CD99) (Homo sapiens, UniProt P14209).
T1 construct: the extracellular domain (Asp23-Asp122) of human CD99; made in house; host or cells: Escherichia coli BL21 (DE3)
T1 sequence (P14209 23-122): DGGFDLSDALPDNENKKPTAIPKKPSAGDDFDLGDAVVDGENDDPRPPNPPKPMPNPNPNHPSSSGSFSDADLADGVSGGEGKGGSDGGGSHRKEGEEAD
As to the kind of experiment: SPR binding, CD99-ECD purified from bacteria. The source says: The Champion™ pET104 BioEase™ Gateway® Expression System (Invitrogen (Carlsbad, Calif.)) was used to produce CD99-ECD fused with a N-terminal biotin tag, as directed by the manufacturer's instructions. Briefly, the DNA sequence encoding the extracellular domain (Asp23-Asp122) of human CD99 was amplified by PCR using pcDNA3.1 expression vector (Life Technologies (Carlsbad, Calif.)) carrying the full-length human CD99 cDNA transcript variant 1 as template. The primers were designed to include an additional C-terminal 6×His tag in the protein. The PCR product was gel purified with a QIAquick gel extraction kit (Qiagen (Hilden, Germany)) and subcloned into the pDONR 221 entry vector. The entry clone was then subjected to a recombination reaction with pET104.1-DEST destination vector, an expression vector with a N-terminal BioEase tag. The presence of an insert was confirmed by DNA sequencing.
CD99-ECD was expressed in Escherichia coli BL21 (DE3) cells. A saturated overnight culture of cells was diluted by 20-fold into fresh LB medium containing 100 μg/mL ampicillin. To induce the expression of CD99-ECD, cells were grown to OD600nm 0.5-0.7 at 37° C. and induced by the addition of isopropyl-β-D-thiogalactopyranoside to a final concentration of 1 mmol/L. The cultures were grown for an additional 3 h at 37° C. Cells were harvested by centrifugation at 8,000×g for 15 min, resuspended in 50 mmol/L sodium phosphate buffer, pH 7.4, containing 500 mmol/L NaCl, 10 mmol/L imidazole and 1 Complete EDTA-free protease inhibitor tablet/50 mL (Roche Diagnostics), and lysed by sonication. […] Protein fractions were finally eluted with a linear gradient of imidazole (10 to 1000 mmol/L) in the same buffer. The purity of the protein was assessed by SDS-PAGE followed by Coomassie staining. The eluted fractions were stored at −80° C. for further use. […]

Experiment [2] deals with non-ES cell lines. As to the kind of experiment: Cell viability IC50 panel, non-ES cell lines. In kind it is cell-based. Conditions: 48 h; highest concentration tested (10 or 30 μmol/L) used for resistant lines; unit not printed with values. The method, then: (§1) The plate was installed into the RTCA system, and the electrical impedance (represented as cell index) was measured every 10 min.
Therefore, two leukemia cell lines, MOLT-4 and Jurkat, were included as positive controls in this experiment.

The test system of experiment [3] is SK-N-MC ES cells. The experiment is described as follows: Cell viability IC50, SK-N-MC. Conditions: Homo sapiens. In kind it is cell-based. How it is done:
as §1
(§2) To investigate the relationship between the level of CD99 expression and drug sensitivity, the endogenous expression of CD99 was determined in a panel of 9 ES and 13 non-ES cell lines. The recombinant purified CD99-ECD protein was used to generate standard curves for immunoquantification of CD99 expression by immunoblotting (FIGS. 6B and 6C).

Experiment [4] deals with RDES ES cells. The experiment is described as follows: Cell viability IC50, RDES. In kind it is cell-based. Conditions: Homo sapiens, RD-ES.
In experiment [5] the test system is IOR/CAR ES cells. The experiment is described as follows: Cell viability IC50, IOR/CAR. The format is cell-based. Conditions: Homo sapiens. The method, then: as §1, §2
Experiment [6] concerns IOR/OS9 OS cells. As to the kind of experiment: Cell viability IC50, IOR/OS9. The format is cell-based. As to conditions: Homo sapiens. How it is done:
as §1, §2

Experiment [7] deals with U-2-OS OS cells. The experiment is described as follows: Cell viability IC50, U-2-OS. In kind it is cell-based. Conditions: Homo sapiens, U2OS. How it is done:
as §1, §2

The subject of experiment [8] is RH1 rhabdomyosarcoma cells. As to the kind of experiment: Cell viability IC50, RH1. In kind it is cell-based. As to conditions: Homo sapiens, RH1 (RM). The method, then:
as §1, §2

Experiment [9] concerns RH30 rhabdomyosarcoma cells. The experiment is described as follows: Cell viability IC50, RH30. The format is cell-based. As to conditions: Homo sapiens; RH30 (RM). The method, then: as §1, §2
Experiment [10] concerns TC-71, 6647 and RDES ES cells. As to the kind of experiment: Soft agar colony formation assay, ES cells. The format is cell-based, human. Conditions: dose-dependent. The method, then: Anchorage-independent growth was determined in 0.33% agarose (Sea-Plaque Agarose, Lonza) with a 0.5% agarose underlay. […] Colonies were counted after 7-12 days.
Experiment [11] deals with TC-71, 6647 and RDES ES cells. As to the kind of experiment: Cell cycle and cell death analysis by flow cytometry, ES cells. The format is cell-based, human. As to conditions: 48 h; for hypodiploid sub-G1 peak: only in ES cells compared with U-2 OS. How it is done:
For the evaluation of cell cycle, cell cultures were incubated with 10 μmol/L bromodeoxyuridine (BrdU) (Sigma-Aldrich) for 1 h in a CO2 atmosphere at 37° C. Harvested cells were fixed in ice-cold 70% ethanol for 30 min. After DNA denaturation with 2 N HCl for 30 min at room temperature, cells were washed with 0.1 M Na2B4O7, pH 8.5 and processed for indirect immunofluorescence staining, using α-BrdU (BD Biosciences (San Jose, Calif.)) diluted 1:4 as a primary MAb and α-mouse FITC (1:100—Thermo Scientific (Waltham, Mass.)) as a secondary antibody. After treatment with 0.5 mg/ml RNase and staining with 20 μg/ml propidium iodide, cells were and analyzed by flow cytometry (FACSCalibur; Becton Dickinson (Franklin Lakes, N.J.)) for cell cycle evaluation and for assessing cell death by DNA content analysis.

The record followed here is patent publication US11202792B2, “CD99 inhibitors and their uses” (GEORGETOWN UNIVERSITY, priority 2016, dated 2021).

What is called Kd is the free concentration of one partner at which half of the binding sites on the other are occupied at equilibrium, for simple one-to-one binding. For orientation: IC50 means the concentration that inhibits the measured activity by half. A lower IC50 goes with greater potency. As for `Nc1nc(Cl)nc2c1ncn2[C@H]1C[C@H](O)[C@@H](CO)O1` [cladribine], in experiment [1], the Kd turned out to be 3800 ± 2400 nM. The IC50 in experiment [2] was at least 20000 nM; in experiment [3] it was 680 nM; in experiment [4] it was 660 nM; in experiment [5], 660 nM; in [6] it was over 30000 nM; in [7] it was over 30000 nM. Moreover, the results for the IC50 in experiment [8] and in experiment [9] were 900 nM and 3260 nM, respectively. For the same compound, the “colony formation (anchorage-independent growth)” value in experiment [10] is reported as “significantly inhibited”. In addition, the cell cycle effect entry in experiment [11] (ES cells) was “cell cycle arrest in S phase”. Also, the “hypodiploid sub-G1 peak” value in experiment [11] is “significant increase”.
For `Nc1nc(Cl)nc2c1ncn2[C@@H]1O[C@H](CO)[C@@H](O)[C@@H]1F` [clofarabine], the Kd in experiment [1] came out at 4600 ± 3200 nM. The IC50 was at least 13700 nM in experiment [2]; 170 nM in experiment [3]; 490 nM in [4]; 290 nM in experiment [5]; over 10000 nM in experiment [6]; over 30000 nM in experiment [7]. The IC50 in experiment [8] is 200 nM; in [9], over 10000 nM. The “colony formation (anchorage-independent growth)” value in experiment [10] is “significantly inhibited”. Moreover, in experiment [11], the “hypodiploid sub-G1 peak” value is reported as “significant increase”.
